Assays:
[1] = system: THP 1 dual-KI-hSTING^WT(R232) reporter cells; assay: Cellular viability of chelator-treated THP 1 dual-KI-hSTING WT(R232) reporter cells; type: cell-based, human
Excerpt: (§1) FIG. 18: Chelating metal ions to inhibit cGAS-STING-Type I IFN pathway. a) Molecular structure of representative chelators that could inhibit cGAS-STING-Type I IFN pathway. b-c) Dose-inhibition curves of the IFN-I response (b) and NF-kB inflammation response (c) by the indicated compounds in DNA/lipofectamine 2000 (ThermoFisher, 11668027) treated THP 1 dual-KI-hSTING^WT(R232) reporter cells (Invivogen, thpd-r232). d) Cellular viability of b-c. e) Dose-inhibition curves of the IFN-I response by the indicated compounds in DNA/lipofectamine 2000 (ThermoFisher, 11668027) treated THP 1-ISG hSTING^HAQ reporter cells (Invivogen, thp-isg). […]
(§2) Given the interesting function of metal ions on modulating innate immune response in our finding, we further evaluated whether chelating metal ions could inhibit the according innate immune pathways, which may be used to treat autoimmune diseases, such as Systemic lupus erythematosus, Aicardi-Goutières syndrome, Acute pancreatitis Age-dependent macular degeneration, Alcoholic liver disease, Liver fibrosis, Metastasis, Myocardial infarction, Nonalcoholic steatohepatitis (NASH), Parkinson's disease, Polyarthritis/fetal and neonatal anemia, Sepsis, inflammatory bowel disease, multiple sclerosis, etc. […] By a ISRE induced luminescence, we could read the degree of inhibition. […]

[2] = system: cGAS-STING-Type I IFN pathway; assay: Inhibition of DNA/lipofectamine-induced IFN-I response in THP 1 dual-KI-hSTING WT(R232) reporter cells; type: cell-based, human; settings: DNA/lipofectamine complex challenging, ISRE induced luminescence
Excerpt: as §1, §2

CT26 colon cancer cells [3] = assay: CT26 colon tumor model, metal ion plus STING agonist CDA, intratumoral; type: in vivo, Balb/c mice; settings: CT26 tumor-bearing mice
Procedure: FIG. 6: Enhanced STING activation and cancer therapy efficacy by Co^2+ and Mn^2+ in vivo. a) individual tumor growth curve after three dose of intratumor injection of the indicated formulation at day 9, 12, 15 after tumor inoculation. b) Serum IFN-beta concentration 8 h after the 1st dose of the indicated formulation. c-d) individual tumor growth (c) and survival (d) of the tumor bearing mice after treated with the indicated formulations.
FIG. 7: Enhanced STING activation by Co^2+ and Mn^2+ led to improved antigen specific immune response after in vivo. a) the percentage of AH1-specific CD8+ T cells among PBMC on day 16. b) IFN-γ secreting cells counts per 5E4 PBMCs after stimulation with AH1 peptides at day 22. c-e) timeline (c). tumor growth curve (d) and AH1-specific CD8+ T cells percentage in spleen CD8+ T cells (e) in tumor re-challenging study starting from day 81. […]
We examined whether the enhanced type-I IFN response in vitro could benefit cancer treatment in vivo. We evaluated the combination of metal ions and STING agonist in a murine tumor model.
To study the mechanisms of action for the improved cancer therapy efficacy, we evaluated the treated animals for antigen-specific T cell responses and performed tumor re-challenging study after 81 days of the initial treatment.

CT26 colon cancer cells [4] = system: CT26 colon cancer cells
Procedure: When tumor size reach ˜60 mm^3, 2 doses of 25 μg/dose cdAMP(ps)2 were administrated intra-tumorally on days 10 and 15. To evaluate antigen-specific immune responses, PBMCs were collected for tetramer staining on day 17 and ELISPOT analysis with AH1 antigen peptides on day 22.
Female Balb/c mice of age 6-8 weeks (Jackson Laboratories) were inoculated with 1×10^5 CT26 colon cancer cells. When tumor size achieved ˜100 mm^3, 2 doses of 25 μg cdAMP(ps)2 in different formulations were administrated via intra-tumoral route on day 10 and day 15. Tumor size and survival were monitored every 2 or 3 days. Tumor size was calculated based on equation: volume=length×width^2×0.5. Animals were euthanized when the tumor reached 1.5 cm in diameter or when animals became moribund with severe weight loss or ulceration. At day 17, the percentages of tumor antigen-specific CD8α+ T cells among PBMC were analyzed using the tetramer staining assay as described previously with peptide-MHC tetramer (H-2Kb-restricted AH1) (the NIH Tetramer Core Facility, Atlanta, GA). On day 22, ELISPOT assay was performed with PBMC from the treated mice as described previously.
We also evaluated a subset of the formulations mentioned above in tumor-bearing mice. When tumor size reached ˜60 mm^3, 2 doses of indicated formulation with 25 μg/dose adAMP(ps)2 were administrated intratumorally on days 10 and 15.

Row | Compound | tolerability in in-vitro assay (cellular viability) [1] | IC50 of DNA-induced Type I IFN response [2] | survival rate (CT26 colon cancer cells [3]) [%] | AH1 antigen-specific T cell response (ELISPOT) (CT26 colon cancer cells [4]; PBMC, day 22, seven days after the 2nd dose) | complete tumor regression (CT26 colon cancer cells [4]; number of mice out of 5)
1 | O=C1O[C@H]2[C@@H]3OC(=O)c4cc(O)c(O)c(O)c4-c4c(O)c(O)c5oc(=O)c6c(c(O)c(O)c7oc(=O)c4c5c76)-c4c(cc(O)c(O)c4O)C(=O)OC[C@H]3OC(O)[C@@H]2OC(=O)c2cc(O)c(O)c(O)c2-c2c1cc(O)c(O)c2O (mixture of isomers) [Punicalagin] | well-tolerated | as low as nanomolar level | – | – | –
2 | Nc1ncnc2c1ncn2[C@@H]1O[C@@H]2COP(=O)(O)O[C@H]3[C@@H](O)[C@H](n4cnc5c(N)ncnc54)O[C@@H]3COP(=O)(O)O[C@H]2[C@H]1O [free CDA] | – | – | 20 | – | –
3 | O=C(OC[C@H]1O[C@@H](OC(=O)c2cc(O)c(O)c(OC(=O)c3cc(O)c(O)c(O)c3)c2)[C@H](OC(=O)c2cc(O)c(O)c(OC(=O)c3cc(O)c(O)c(O)c3)c2)[C@@H](OC(=O)c2cc(O)c(O)c(OC(=O)c3cc(O)c(O)c(O)c3)c2)[C@@H]1OC(=O)c1cc(O)c(O)c(OC(=O)c2cc(O)c(O)c(O)c2)c1)c1cc(O)c(O)c(OC(=O)c2cc(O)c(O)c(O)c2)c1 [tannin acid] | well-tolerated | as low as nanomolar level | – | – | –
4 | cdAMP(ps)2 [free CDN] | – | – | – | significant | 2 out of 5
